Legend:
Assay type in all cases: biochemical
Conditions in all cases: ADP-Glo SIK kinase assay
SIK3 = molecular target: T1, SIK3 (Homo sapiens, UniProt Q9Y2K2); assay: ADP-Glo kinase assay, SIK3
T1 construct: purchased SignalChem S12-11G-100
How it was run: (§1)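 Wells with 1% DMSO or 10 μM staurosporine (final) define the control window. The kinase reaction with substrate and ATP runs 120 min at RT, followed by ADP-Glo detection: ATP depletion (40 min) and ADP-derived luminescence (30 min).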

SIK1 = molecular target: T2, SIK1 (Homo sapiens, UniProt P57059); assay: ADP-Glo kinase assay, SIK1
T2 construct: purchased Carna Biosciences 02-131
How it was run: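 Enzyme–substrate mix was started with ATP and incubated 120 min at RT. ADP formed was quantified by ADP-Glo: 40 min ATP depletion, then 30 min detection reagent converting ADP to ATP for luciferase luminescence, which rises with kinase activity. Controls: 1% DMSO and 10 μM staurosporine (final).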

SIK2 = molecular target: T3, SIK2 (Homo sapiens, UniProt Q9H0K1); assay: ADP-Glo kinase assay, SIK2
T3 construct: purchased ThermoFisher Scientific PV4792
How it was run: as §1

T1 sequence (Q9Y2K2 whole entry): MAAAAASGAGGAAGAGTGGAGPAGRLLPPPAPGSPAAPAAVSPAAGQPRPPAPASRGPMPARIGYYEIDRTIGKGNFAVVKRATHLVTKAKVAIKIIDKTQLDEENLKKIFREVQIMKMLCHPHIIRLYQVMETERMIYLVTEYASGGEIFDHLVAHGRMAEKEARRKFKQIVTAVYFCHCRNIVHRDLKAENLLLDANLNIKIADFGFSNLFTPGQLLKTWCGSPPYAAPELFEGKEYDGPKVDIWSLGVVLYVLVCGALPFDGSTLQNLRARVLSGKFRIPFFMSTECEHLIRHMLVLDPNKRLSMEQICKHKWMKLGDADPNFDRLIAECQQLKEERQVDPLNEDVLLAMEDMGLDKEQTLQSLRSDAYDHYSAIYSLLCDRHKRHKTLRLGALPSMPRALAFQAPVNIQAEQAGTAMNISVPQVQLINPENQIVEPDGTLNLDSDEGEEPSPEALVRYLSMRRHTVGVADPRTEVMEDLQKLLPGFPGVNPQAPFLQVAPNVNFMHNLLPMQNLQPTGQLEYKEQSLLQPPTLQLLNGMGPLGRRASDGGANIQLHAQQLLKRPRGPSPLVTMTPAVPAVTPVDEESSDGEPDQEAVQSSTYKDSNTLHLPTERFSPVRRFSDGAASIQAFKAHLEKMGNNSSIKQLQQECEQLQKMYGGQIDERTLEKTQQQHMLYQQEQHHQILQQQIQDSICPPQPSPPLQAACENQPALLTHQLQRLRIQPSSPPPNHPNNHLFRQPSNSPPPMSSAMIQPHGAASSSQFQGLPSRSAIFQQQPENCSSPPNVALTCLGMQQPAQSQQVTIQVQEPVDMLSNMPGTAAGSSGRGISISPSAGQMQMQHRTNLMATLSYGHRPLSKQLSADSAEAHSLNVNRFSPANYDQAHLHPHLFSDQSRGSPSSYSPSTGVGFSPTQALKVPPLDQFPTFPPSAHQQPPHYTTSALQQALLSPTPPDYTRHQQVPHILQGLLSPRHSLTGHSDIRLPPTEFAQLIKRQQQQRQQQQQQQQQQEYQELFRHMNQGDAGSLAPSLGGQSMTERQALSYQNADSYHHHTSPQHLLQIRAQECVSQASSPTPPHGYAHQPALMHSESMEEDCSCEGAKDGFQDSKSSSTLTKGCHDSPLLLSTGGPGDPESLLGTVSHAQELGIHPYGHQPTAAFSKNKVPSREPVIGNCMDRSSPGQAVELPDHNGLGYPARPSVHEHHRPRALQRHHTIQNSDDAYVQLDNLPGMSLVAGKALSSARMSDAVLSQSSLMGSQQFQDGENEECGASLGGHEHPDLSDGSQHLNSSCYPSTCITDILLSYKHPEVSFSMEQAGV
T3 sequence (Q9H0K1 whole entry): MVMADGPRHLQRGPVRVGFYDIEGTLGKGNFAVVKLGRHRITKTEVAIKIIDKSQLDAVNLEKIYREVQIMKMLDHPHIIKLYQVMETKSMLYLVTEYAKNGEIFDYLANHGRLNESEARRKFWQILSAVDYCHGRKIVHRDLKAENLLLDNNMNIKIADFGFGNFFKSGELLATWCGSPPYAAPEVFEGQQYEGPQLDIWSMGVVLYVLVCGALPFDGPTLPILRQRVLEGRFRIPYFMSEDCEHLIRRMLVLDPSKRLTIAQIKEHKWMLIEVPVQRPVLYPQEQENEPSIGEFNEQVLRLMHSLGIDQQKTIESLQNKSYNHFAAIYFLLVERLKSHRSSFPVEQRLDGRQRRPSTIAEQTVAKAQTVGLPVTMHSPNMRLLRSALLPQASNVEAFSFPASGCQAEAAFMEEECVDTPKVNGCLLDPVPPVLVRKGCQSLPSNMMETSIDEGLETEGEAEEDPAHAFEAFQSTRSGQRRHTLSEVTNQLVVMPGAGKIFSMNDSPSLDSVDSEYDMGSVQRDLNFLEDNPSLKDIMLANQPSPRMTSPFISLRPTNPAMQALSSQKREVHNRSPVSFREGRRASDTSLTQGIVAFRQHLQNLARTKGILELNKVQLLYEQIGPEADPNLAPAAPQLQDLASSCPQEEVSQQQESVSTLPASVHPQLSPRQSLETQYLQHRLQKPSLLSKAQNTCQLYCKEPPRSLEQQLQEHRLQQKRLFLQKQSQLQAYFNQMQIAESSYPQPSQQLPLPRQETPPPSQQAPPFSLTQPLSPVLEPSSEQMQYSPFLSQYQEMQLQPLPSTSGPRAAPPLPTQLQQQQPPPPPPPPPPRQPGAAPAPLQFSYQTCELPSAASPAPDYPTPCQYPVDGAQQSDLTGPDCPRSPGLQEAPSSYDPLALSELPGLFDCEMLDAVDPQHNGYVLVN
T2 sequence (P57059 whole entry): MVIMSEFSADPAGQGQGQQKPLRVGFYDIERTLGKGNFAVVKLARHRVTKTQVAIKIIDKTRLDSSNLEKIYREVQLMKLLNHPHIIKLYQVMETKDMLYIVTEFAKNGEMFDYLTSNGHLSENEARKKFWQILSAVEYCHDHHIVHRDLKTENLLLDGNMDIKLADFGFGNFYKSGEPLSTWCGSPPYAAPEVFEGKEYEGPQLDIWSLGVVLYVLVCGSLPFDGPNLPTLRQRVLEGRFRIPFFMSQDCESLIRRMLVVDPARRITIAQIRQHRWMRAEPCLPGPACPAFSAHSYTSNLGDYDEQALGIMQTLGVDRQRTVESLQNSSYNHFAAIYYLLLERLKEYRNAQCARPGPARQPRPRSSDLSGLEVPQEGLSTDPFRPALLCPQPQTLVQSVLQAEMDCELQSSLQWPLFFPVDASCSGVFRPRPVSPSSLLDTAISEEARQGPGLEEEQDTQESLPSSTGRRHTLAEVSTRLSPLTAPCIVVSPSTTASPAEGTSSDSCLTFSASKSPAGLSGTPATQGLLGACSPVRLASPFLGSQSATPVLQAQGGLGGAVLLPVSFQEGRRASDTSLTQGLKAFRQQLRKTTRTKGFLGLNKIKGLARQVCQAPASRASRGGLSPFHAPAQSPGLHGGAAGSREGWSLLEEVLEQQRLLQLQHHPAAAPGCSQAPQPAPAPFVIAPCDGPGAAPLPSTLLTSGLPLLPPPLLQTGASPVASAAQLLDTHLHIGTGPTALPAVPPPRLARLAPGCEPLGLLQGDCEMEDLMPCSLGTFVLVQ

SMILES | IC50 (SIK3) | IC50 (SIK1) | IC50 (SIK2)
COc1cc(-c2cnc3cc(OCCF)ccn23)cc(OC(F)F)c1C(=O)NC1CC1 [compound 36, N-cyclopropyl-2-(difluoromethoxy)-4-[7-(2-fluoroethoxy)imidazo[1,2-a]pyridin-3-yl]-6-methoxy-benzamide] | 0.01 to 10 nM | 10 to 100 nM | 0.01 to 10 nM
COCCOCCOc1ccn2c(-c3cc(OC)c(C(=O)NC4CC4)c(OC(F)F)c3)cnc2c1 [compound 38, N-cyclopropyl-2-(difluoromethoxy)-6-methoxy-4-[7-[2-(2-methoxyethoxy)ethoxy]imidazo[1,2-a]pyridin-3-yl]benzamide] | 0.01 to 10 nM | 10 to 100 nM | 0.01 to 10 nM
COc1cc(-c2cnc3cc(OCc4cccnc4)ccn23)cc(OC(F)F)c1C(=O)NC1CC1 [compound 43, N-cyclopropyl-2-(difluoromethoxy)-6-methoxy-4-[7-(3-pyridylmethoxy)imidazo [1,2-a]pyridin-3-yl]benzamide] | 0.01 to 10 nM | 10 to 100 nM | 0.01 to 10 nM
COc1cc(-c2cnc3cc(OCc4cscn4)ccn23)cc(OC(F)F)c1C(=O)NC1CC1 [compound 46, N-cyclopropyl-2-(difluoromethoxy)-6-methoxy-4-[7-(thiazol-4-ylmethoxy)imidazo[1,2-a]pyridin-3-yl]benzamide] | 0.01 to 10 nM | 10 to 100 nM | 0.01 to 10 nM
COc1cc(-c2cnc3cc(OCc4nccs4)ccn23)cc(OC(F)F)c1C(=O)NC1CC1 [compound 47, N-cyclopropyl-2-(difluoromethoxy)-6-methoxy-4-[7-(thiazol-2-ylmethoxy)imidazo[1,2-a]pyridin-3-yl]benzamide] | 0.01 to 10 nM | 10 to 100 nM | 0.01 to 10 nM
COc1cc(-c2cnc3cc(OCC4CC(F)(F)C4)ccn23)cc(OC(F)F)c1C(=O)NC1CC1 [compound 52, N-cyclopropyl-4-[7-[(3,3-difluorocyclobutyl)methoxy]imidazo[1,2-a]pyridin-3-yl]-2-(difluoromethoxy)-6-methoxy-benzamide] | 0.01 to 10 nM | 0.01 to 10 nM | 0.01 to 10 nM
CCN1CCc2cc(-c3cnc4cc(OCCN(C)C)ccn34)cc(OC)c2C1=O [compound 53, 6-[7-[2-(dimethylamino)ethoxy]imidazo[1,2-a]pyridin-3-yl]-2-ethyl-8-methoxy-3,4-dihydroisoquinolin-1-one] | 10 to 100 nM | > 500 nM | 10 to 100 nM
COC(=O)C1(COc2ccn3c(-c4cc(OC)c(C(=O)NC5CC5)c(OC(F)F)c4)cnc3c2)CC1 [compound 57, methyl 1-[[3-[4-(cyclopropylcarbamoyl)-3-(difluoromethoxy)-5-methoxy-phenyl]imidazo[1,2-a]pyridin-7-yl]oxymethyl] cyclopropanecarboxylate] | 0.01 to 10 nM | 10 to 100 nM | 0.01 to 10 nM
COc1cc(-c2cnc3cc(OCC4CCCOC4)ccn23)cc(OC(F)F)c1C(=O)NC1CC1 (stereo not drawn) [compound 59, N-cyclopropyl-2-(difluoromethoxy)-6-methoxy-4-[7-(tetrahydropyran-3-ylmethoxy)imidazo[1,2-a]pyridin-3-yl]benzamide] | 0.01 to 10 nM | 0.01 to 10 nM | 0.01 to 10 nM
COc1cc(-c2cnc3cc(OCc4cocn4)ccn23)cc(OC(F)F)c1C(=O)NC1CC1 [compound 60, N-cyclopropyl-2-(difluoromethoxy)-6-methoxy-4-[7-(oxazol-4-ylmethoxy)imidazo[1,2-a]pyridin-3-yl]benzamide] | 0.01 to 10 nM | 10 to 100 nM | 0.01 to 10 nM
COc1cc(-c2cnc3cc(OC4CCC(F)(F)C4)ccn23)cc(OC(F)F)c1C(=O)NC1CC1 (stereo not drawn) [compound 62, N-cyclopropyl-4-[7-(3,3-difluorocyclopentoxy)imidazo[1,2-a]pyridin-3-yl]-2-(difluoromethoxy)-6-methoxy-benzamide] | 0.01 to 10 nM | 10 to 100 nM | 10 to 100 nM
COc1cc(-c2cnc3cc(OCC(C)(C)C)ccn23)cc(OC(F)F)c1C(=O)NC1CC1 [compound 66, N-cyclopropyl-2-(difluoromethoxy)-4-[7-(2,2-dimethylpropoxy)imidazo [1,2-a]pyridin-3-yl]-6-methoxy-benzamide] | 0.01 to 10 nM | 0.01 to 10 nM | 0.01 to 10 nM
CCOCCOc1ccn2c(-c3cc(OC)c(C(=O)NC4CC4)c(OC(F)F)c3)cnc2c1 [compound 72, N-cyclopropyl-2-(difluoromethoxy)-4-[7-(2-ethoxyethoxy)imidazo [1,2-a]pyridin-3-yl]-6-methoxy-benzamide] | 0.01 to 10 nM | 10 to 100 nM | 0.01 to 10 nM
COc1cc(-c2cnc3cc(OCCOCCO)ccn23)cc(OC(F)F)c1C(=O)NC1CC1 [compound 73] | 0.01 to 10 nM | 10 to 100 nM | 0.01 to 10 nM
COc1cc(-c2cnc3cc(OCC4CCC(F)(F)C4)ccn23)cc(OC(F)F)c1C(=O)NC1CC1 (stereo not drawn) [compound 75, N-cyclopropyl-4-[7-[(3,3-difluorocyclopentyl)methoxy]imidazo[1,2-a]pyridin-3-yl]-2-(difluoromethoxy)-6-methoxy-benzamide] | 0.01 to 10 nM | 0.01 to 10 nM | 0.01 to 10 nM
COc1cc(-c2cnc3cc(OCCC4CC(F)(F)C4)ccn23)cc(OC(F)F)c1C(=O)NC1CC1 [compound 76, N-cyclopropyl-4-[7-[2-(3,3-difluorocyclobutyl)ethoxy]imidazo[1,2-a]pyridin-3-yl]-2-(difluoromethoxy)-6-methoxy-benzamide] | 0.01 to 10 nM | 10 to 100 nM | 0.01 to 10 nM
COc1cc(-c2cnc3cc(OC4CCC(F)(F)CC4)ccn23)cc(OC(F)F)c1C(=O)NC1CC1 [compound 77, N-cyclopropyl-4-[7-(4,4-difluorocyclohexoxy)imidazo[1,2-a]pyridin-3-yl]-2-(difluoromethoxy)-6-methoxy-benzamide] | 0.01 to 10 nM | 100 to 500 nM | 10 to 100 nM

Other lines, results leading:

IC50 (SIK3) | IC50 (SIK1) | IC50 (SIK2) | SMILES
0.01 to 10 nM | 0.01 to 10 nM | 0.01 to 10 nM | COc1cc(-c2cnc3cc(OCC4CC4(F)F)ccn23)cc(OC(F)F)c1C(=O)NC1CC1 (stereo not drawn) [compound 42, N-cyclopropyl-4-[7-[(2,2-difluorocyclopropyl)methoxy]imidazo[1,2-a]pyridin-3-yl]-2-(difluoromethoxy)-6-methoxy-benzamide]
0.01 to 10 nM | 0.01 to 10 nM | 0.01 to 10 nM | COc1cc(-c2cnc3cc(OCC4CCOCC4)ccn23)cc(OC(F)F)c1C(=O)NC1CC1 [compound 49, N-cyclopropyl-2-(difluoromethoxy)-6-methoxy-4-[7-(tetrahydropyran-4-ylmethoxy)imidazo[1,2-a]pyridin-3-yl] benzamide]
10 to 100 nM | > 500 nM | 10 to 100 nM | COc1cc(-c2cnc3cc(OCCN(C)C)ccn23)cc(F)c1C(=O)NC1CC1 [compound 51, N-cyclopropyl-4-[7-[2-(dimethylamino)ethoxy]imidazo[1,2-a]pyridin-3-yl]-2-fluoro-6-methoxy-benzamide]
0.01 to 10 nM | 0.01 to 10 nM | 0.01 to 10 nM | COc1cc(-c2cnc3cc(OCC4CCCC4)ccn23)cc(OC(F)F)c1C(=O)NC1CC1 [compound 61, 4-[7-(cyclopentylmethoxy)imidazo[1,2-a]pyridin-3-yl]-N-cyclopropyl-2-(difluoromethoxy)-6-methoxy-benzamide]
0.01 to 10 nM | 0.01 to 10 nM | 0.01 to 10 nM | COc1cc(-c2cnc3cc(OCCN4CCCC4=O)ccn23)cc(OC(F)F)c1C(=O)NC1CC1 [compound 63, N-cyclopropyl-2-(difluoromethoxy)-6-methoxy-4-[7-[2-(2-oxopyrrolidin-1-yl)ethoxy]imidazo[1,2-a]pyridin-3-yl]benzamide]
0.01 to 10 nM | 0.01 to 10 nM | 0.01 to 10 nM | COc1cc(-c2cnc3cc(OCCOCCN(C)C)ccn23)cc(OC(F)F)c1C(=O)NC1CC1 [compound 65, N-cyclopropyl-2-(difluoromethoxy)-4-[7-[2-[2-(dimethylamino)ethoxy]ethoxy]imidazo[1,2-a]pyridin-3-yl]-6-methoxy-benzamide]
0.01 to 10 nM | 0.01 to 10 nM | 0.01 to 10 nM | COc1cc(-c2cnc3cc(OCc4ccccc4)ccn23)cc(OC(F)F)c1C(=O)NC1CC1 [compound 68, 4-(7-benzyloxyimidazo[1,2-a]pyridin-3-yl)-N-cyclopropyl-2-(difluoromethoxy)-6-methoxy-benzamide]
0.01 to 10 nM | 10 to 100 nM | 0.01 to 10 nM | COc1cc(-c2cnc3cc(OCC4CCCCC4)ccn23)cc(OC(F)F)c1C(=O)NC1CC1 [compound 69, 4-[7-(cyclohexylmethoxy)imidazo[1,2-a]pyridin-3-yl]-N-cyclopropyl-2-(difluoromethoxy)-6-methoxy-benzamide]
0.01 to 10 nM | 10 to 100 nM | 0.01 to 10 nM | COCCOc1ccn2c(-c3cc(OC)c(C(=O)NC4CC4)c(OC(F)F)c3)cnc2c1 [compound 70, N-cyclopropyl-2-(difluoromethoxy)-6-methoxy-4-[7-(2-methoxyethoxy)imidazo [1,2-a]pyridin-3-yl]benzamide]
0.01 to 10 nM | 10 to 100 nM | 0.01 to 10 nM | COc1cc(-c2cnc3cc(OCC(C)(C)CO)ccn23)cc(OC(F)F)c1C(=O)NC1CC1 [compound 74, N-cyclopropyl-2-(difluoromethoxy)-4-[7-(3-hydroxy-2,2-dimethyl-propoxy)imidazo[1,2-a]pyridin-3-yl]-6-methoxy-benzamide]

From patent US12264156B2, “Compounds and pharmaceutical compositions thereof for the treatment of diseases” (GALAPAGOS NV, priority 2018, dated 2025)
